How the values were obtained:
APRT = test: Effect of selection media on wild type, APRT-RNAi and APRT knock out cells (survival / cell death); format: cell-based; conditions: for Effect of selection medium on cells: RNAi: cells expressing RNAi-constructs directed against APRT; for Effect of selection medium on cells: knock out: cells with APRT inactivated on the chromosomal level; for Effect of selection medium on cells: wild type: gene APRT; for all read-outs here: key: Survival of the cells in the respective selective conditions is marked +; cell death in the respective selective condition is marked −
HPRT = test: Effect of selection media on wild type, HPRT-RNAi and HPRT knock out cells (survival / cell death); format: cell-based; conditions: for Effect of selection medium on cells: RNAi: cells expressing RNAi-constructs directed against HPRT; for Effect of selection medium on cells: knock out: cells with HPRT inactivated on the chromosomal level; for Effect of selection medium on cells: wild type: gene HPRT
thymidine kinase = test: Effect of selection media on wild type, thymidine kinase-RNAi and thymidine kinase knock out cells (survival / cell death); format: cell-based; conditions: for Effect of selection medium on cells: RNAi: cells expressing RNAi-constructs directed against thymidine kinase; for Effect of selection medium on cells: knock out: cells with thymidine kinase inactivated on the chromosomal level; for Effect of selection medium on cells: wild type: gene thymidine kinase; for all read-outs here: key: Survival of the cells in the respective selective conditions is marked +; cell death in the respective selective condition is marked −

For `Nc1nc(F)nc2nc[nH]c12` [2-fluoroadenine], which “Effect of selection medium on cells: RNAi” value (APRT) is on record?
Its value is “+”.

And the “Effect of selection medium on cells: knock out” value (APRT)?
Its value is “+”.

And the “Effect of selection medium on cells: wild type” value (APRT)?
The value was “−”.

How did the “Effect of selection medium on cells: RNAi” value (HPRT) turn out when `Nc1nc2c(ncn2[C@@H]2O[C@H](CO)[C@@H](O)[C@H]2O)c(=S)[nH]1` [6-thioguanosine] was run?
The value was “+”.

What about the “Effect of selection medium on cells: knock out” value (HPRT) of the same compound?
The value was “+”.

And the “Effect of selection medium on cells: wild type” value (HPRT)?
The value was “−”.

How did the “Effect of selection medium on cells: RNAi” value (APRT) turn out when `Nc1ncnc2nn[nH]c12` [8-azaadenine] was run?
Its value is “+”.

What about the “Effect of selection medium on cells: knock out” value (APRT) of the same compound?
Its value is “+”.

What about the “Effect of selection medium on cells: wild type” value (APRT) of the same compound?
Its value is “−”.

Which results are given for `Nc1nc2c(nnn2[C@@H]2O[C@H](CO)[C@@H](O)[C@H]2O)c(=O)[nH]1` [8-azaguanosine]?
Effect of selection medium on cells: RNAi (HPRT): +; Effect of selection medium on cells: knock out (HPRT): +; Effect of selection medium on cells: wild type (HPRT): −

With `O=c1[nH]c(=O)n([C@H]2C[C@H](O)[C@@H](CO)O2)cc1Br` [bromodesoxyuridine] as the compound, how does the “Effect of selection medium on cells: RNAi” value (thymidine kinase) read?
The value was “+”.

And the “Effect of selection medium on cells: knock out” value (thymidine kinase)?
Its value is “+”.

And the “Effect of selection medium on cells: wild type” value (thymidine kinase)?
Its value is “−”.

Which “Effect of selection medium on cells: RNAi” value (APRT) does the source give for `Nc1nc(N)c2nc[nH]c2n1` [diaminopurine] here?
Its value is “+”.

And the “Effect of selection medium on cells: knock out” value (APRT)?
Its value is “+”.

What about the “Effect of selection medium on cells: wild type” value (APRT) of the same compound?
Its value is “−”.

`CN(Cc1cnc2nc(N)nc(N)c2n1)c1ccc(C(=O)N[C@@H](CCC(=O)O)C(=O)O)cc1` [methotrexate] was tested. Which “Effect of selection medium on cells: RNAi” value (DHFR; cells expressing RNAi-constructs directed against DHFR) did it give?
Its value is “−”.

And the “Effect of selection medium on cells: knock out” value (DHFR; cells with DHFR inactivated on the chromosomal level)?
Its value is “−”.

And the “Effect of selection medium on cells: wild type” value (DHFR; wild type cells, gene DHFR)?
Its value is “+”.

`O=c1[nH]c(=O)n([C@H]2C[C@H](O)[C@@H](CO)O2)cc1C(F)(F)F` [trifuorothymidine] was tested. Which “Effect of selection medium on cells: RNAi” value (thymidine kinase) did it give?
Its value is “+”.

And the “Effect of selection medium on cells: knock out” value (thymidine kinase)?
Its value is “+”.

And the “Effect of selection medium on cells: wild type” value (thymidine kinase)?
Its value is “−”.

Source: US20080120733A1, “Rnai-Based Method for Selecting Transfected Eukaryotic Cells” (GBF-GESELLSCHAFT FUR BIOTECHNOLOGISCHE FORSCHUNG, priority 2004, published 2008)
